Test results: patent publication US20100093760A1, “METHODS FOR IDENTIFYING COMPOUNDS THAT MODULATE CELL SIGNALING AND METHODS EMPLOYING SUCH COMPOUNDS” (The General Hospital Corporation, priority 2006, published 2010)
Entries after “also recorded” stand apart in the source; their conditions may differ. Read-outs that look alike come from different tables or passages of the source.

What was measured:
[1] = system: chordin morphant embryos; assay: Rescue of ventralization in chordin morphant zebrafish embryos; format: in vivo; conditions: 20 μM at 2 hpf, 36 hpf
Excerpt: Since treatment with Compound C/Dorsomorphin mimics BMP antagonism in zebrafish, it was postulated that Compound C/Dorsomorphin might rescue ventralization caused by loss of the endogenous BMP antagonist chordin ([…] et al., Development 123:143-151, 1996; Nasevicius et al., Nat. Genet. 26:216-220, 2000). […] Genet. 26:216-220, 2000; Leung et al., Dev. Biol. 277:235-254, 2005). […] Therefore, Compound C/Dorsomorphin treatment compensates for the loss of an endogenous BMP antagonist in zebrafish embryos, confirming its function as a BMP antagonist.

[2] = system: zebrafish embryos; format: in vivo; conditions: for Mild % / Mild dorsalization, number of embryos / Moderate % / Moderate dorsalization, number of embryos / Normal % / Normal, number of embryos / Severe % / Severe dorsalization, number of embryos / % Mild / % Moderate-Severe / Mild, number of embryos / Moderate-Severe, number of embryos / Total % Dorsalized: scored at 48 hpf
[3] = 10 μM, continuous exposure from 2 hpf
[4] = 10 μM, continuous exposure from 4 hpf
[5] = 10 μM, continuous exposure from 6 hpf
[6] = 10 μM, continuous exposure from 8 hpf
[7] = 10 μM, continuous exposure from 10 hpf
[8] = 10 μM, interval exposure 2-4 hpf
[9] = 10 μM, interval exposure 2-6 hpf
[10] = 10 μM, interval exposure 2-8 hpf
[11] = 10 μM, interval exposure 4-8 hpf
[12] = 10 μM, interval exposure 6-8 hpf
[13] = dorsomorphin 10 μM, treatment at 3 hpf

SMILES: c1cc(-c2cnn3cc(-c4ccc(OCCN5CCCCC5)cc4)cnc23)ccn1 [Compound C/Dorsomorphin]
- ventralization of chordin morphant embryos [1]: prevented ventralization and ICM expansion; also recorded: little or no ventralization
- toxicity ([2]; 10 μM): No toxicity was observed
- Mild % [2, 3]: 0%
- Mild dorsalization, number of embryos [2, 3]: 0
- Moderate % [2, 3]: 0%
- Moderate dorsalization, number of embryos [2, 3]: 0
- Normal % [2, 3]: 0%
- Normal, number of embryos [2, 3]: 0
- Severe % [2, 3]: 100%
- Severe dorsalization, number of embryos [2, 3]: 20
- Mild % [2, 4]: 0%
- Mild dorsalization, number of embryos [2, 4]: 0
- Moderate % [2, 4]: 100%
- Moderate dorsalization, number of embryos [2, 4]: 19
- Normal % [2, 4]: 0%
- Normal, number of embryos [2, 4]: 0
- Severe % [2, 4]: 0%
- Severe dorsalization, number of embryos [2, 4]: 0
- Mild % [2, 5]: 22%
- Mild dorsalization, number of embryos [2, 5]: 4
- Moderate % [2, 5]: 78%
- Moderate dorsalization, number of embryos [2, 5]: 14
- Normal % [2, 5]: 0%
- Normal, number of embryos [2, 5]: 0
- Severe % [2, 5]: 0%
- Severe dorsalization, number of embryos [2, 5]: 0
- Mild % [2, 6]: 85%
- Mild dorsalization, number of embryos [2, 6]: 17
- Moderate dorsalization, number of embryos [2, 6]: 0
- Normal, number of embryos [2, 6]: 3
- Severe % [2, 6]: 0%
- Severe dorsalization, number of embryos [2, 6]: 0
- Mild % [2, 7]: 0%
- Mild dorsalization, number of embryos [2, 7]: 0
- Moderate % [2, 7]: 0%
- Moderate dorsalization, number of embryos [2, 7]: 0
- Normal % [2, 7]: 100%
- Normal, number of embryos [2, 7]: 20
- Severe % [2, 7]: 0%
- Severe dorsalization, number of embryos [2, 7]: 0
- dorsalization phenotype ([2]; 10 μM, continuous from 2 hpf): severe dorsalization with high penetrance
- dorsalization phenotype ([2]; 10 μM, exposure from 4-8 and 6-8 hpf): mild to moderate dorsalization
- Mild % [2, 8]: 10%
- Mild dorsalization, number of embryos [2, 8]: 2
- Moderate % [2, 8]: 90%
- Moderate dorsalization, number of embryos [2, 8]: 18
- Normal % [2, 8]: 0%
- Normal, number of embryos [2, 8]: 0
- Severe dorsalization, number of embryos [2, 8]: 0
- Mild % [2, 9]: 17%
- Mild dorsalization, number of embryos [2, 9]: 3
- Moderate % [2, 9]: 44%
- Moderate dorsalization, number of embryos [2, 9]: 8
- Normal % [2, 9]: 0%
- Normal, number of embryos [2, 9]: 0
- Severe % [2, 9]: 39%
- Severe dorsalization, number of embryos [2, 9]: 7
- Mild % [2, 10]: 0%
- Mild dorsalization, number of embryos [2, 10]: 0
- Moderate % [2, 10]: 0%
- Moderate dorsalization, number of embryos [2, 10]: 0
- Normal % [2, 10]: 0%
- Normal, number of embryos [2, 10]: 0
- Severe % [2, 10]: 100%
- Severe dorsalization, number of embryos [2, 10]: 20
- Mild % [2, 11]: 65%
- Mild dorsalization, number of embryos [2, 11]: 15
- Moderate % [2, 11]: 35%
- Normal % [2, 11]: 0%
- Normal, number of embryos [2, 11]: 0
- Severe % [2, 11]: 0%
- Severe dorsalization, number of embryos [2, 11]: 0
- Mild % [2, 12]: 95%
- Mild dorsalization, number of embryos [2, 12]: 19
- Moderate % [2, 12]: 5%
- Moderate dorsalization, number of embryos [2, 12]: 1
- Normal % [2, 12]: 0%
- Normal, number of embryos [2, 12]: 0
- Severe % [2, 12]: 0%
- Severe dorsalization, number of embryos [2, 12]: 0
- dorsalization phenotype ([2]; 10 μM, treated at 2-4 hpf): severe dorsalization defects
- dorsalization phenotype ([2]; 10 μM, treated at 6-8 hpf): mild dorsalization
- dorsalization phenotype ([2]; 10 μM, treatment at 10 hpf and beyond): did not induce dorsalization
- nonspecific toxicity ([2]; 5-20 uM): absence of other nonspecific toxicity
- dorsalization phenotype ([2]; 5 to 10 μM from 3 hpf): progressively more severe dorsalization in a progressively higher percentage of embryos
- dorsalization phenotype ([2]; 10 (unit not given) from 3 hpf): moderate or severe dorsalization in nearly all embryos examined
- % Mild ([2]; DM 0.2 μM from 3 hpf): 0%
- % Moderate-Severe ([2]; DM 0.2 μM from 3 hpf): 0%
- Mild, number of embryos ([2]; DM 0.2 μM from 3 hpf): 0
- Moderate-Severe, number of embryos ([2]; DM 0.2 μM from 3 hpf): 0
- Normal, number of embryos ([2]; DM 0.2 μM from 3 hpf): 60
- Total % Dorsalized ([2]; DM 0.2 μM from 3 hpf): 0%
- % Mild ([2]; DM 0.5 μM from 3 hpf): 0%
- % Moderate-Severe ([2]; DM 0.5 μM from 3 hpf): 0%
- Mild, number of embryos ([2]; DM 0.5 μM from 3 hpf): 0
- Moderate-Severe, number of embryos ([2]; DM 0.5 μM from 3 hpf): 0
- Normal, number of embryos ([2]; DM 0.5 μM from 3 hpf): 59
- Total % Dorsalized ([2]; DM 0.5 μM from 3 hpf): 0%
- % Mild ([2]; DM 1 μM from 3 hpf): 0%
- % Moderate-Severe ([2]; DM 1 μM from 3 hpf): 0%
- Mild, number of embryos ([2]; DM 1 μM from 3 hpf): 0
- Moderate-Severe, number of embryos ([2]; DM 1 μM from 3 hpf): 0
- Normal, number of embryos ([2]; DM 1 μM from 3 hpf): 60
- Total % Dorsalized ([2]; DM 1 μM from 3 hpf): 0%
- % Mild ([2]; DM 2 μM from 3 hpf): 0%
- % Moderate-Severe ([2]; DM 2 μM from 3 hpf): 0%
- Mild, number of embryos ([2]; DM 2 μM from 3 hpf): 0
- Normal, number of embryos ([2]; DM 2 μM from 3 hpf): 60
- Total % Dorsalized ([2]; DM 2 μM from 3 hpf): 0%
- % Mild ([2]; DM 5 μM from 3 hpf): 19%
- % Moderate-Severe ([2]; DM 5 μM from 3 hpf): 0%
- Mild, number of embryos ([2]; DM 5 μM from 3 hpf): 11
- Moderate-Severe, number of embryos ([2]; DM 5 μM from 3 hpf): 0
- Normal, number of embryos ([2]; DM 5 μM from 3 hpf): 48
- Total % Dorsalized ([2]; DM 5 μM from 3 hpf): 19%
- % Mild ([2]; DM 7.5 μM from 3 hpf): 58%
- % Moderate-Severe ([2]; DM 7.5 μM from 3 hpf): 42%
- Mild, number of embryos ([2]; DM 7.5 μM from 3 hpf): 35
- Moderate-Severe, number of embryos ([2]; DM 7.5 μM from 3 hpf): 25
- Normal, number of embryos ([2]; DM 7.5 μM from 3 hpf): 0
- Total % Dorsalized ([2]; DM 7.5 μM from 3 hpf): 100%
- % Mild ([2]; DM 10 μM from 3 hpf): 3%
- % Moderate-Severe ([2]; DM 10 μM from 3 hpf): 98%
- Mild, number of embryos ([2]; DM 10 μM from 3 hpf): 1
- Moderate-Severe, number of embryos ([2]; DM 10 μM from 3 hpf): 39
- Normal, number of embryos ([2]; DM 10 μM from 3 hpf): 0
- Total % Dorsalized ([2]; DM 10 μM from 3 hpf): 100%
- % Dorsalized [2, 13]: 100%
- Dorsalized, number of embryos [2, 13]: 26
- Early lethality, number of embryos [2, 13]: 3
- Total survivors [2, 13]: 26
- dorsalization and toxicity ([2]; same conditions as C75 (3 hpf)): induced dorsalization with high penetrance and minimal toxicity
- dorsalization phenotype ([2]; ≦2 μM from 3 hpf): did not elicit dorsalization
- cyclopia (phenotype of defective TGF-β signaling) ([2]; ≧5 μM at ≦8 hpf): did not result in cyclopia
